This is an account of results in the supplement of paper PMC5579334.

For assay [1], the system named is HS-PSS. Put plainly: drug sensitivity score (DSS, CellTox-Green cytotoxicity, 72 h) (DSS (dimensionless)); higher = more cytotoxic; extreme values may be limits of the assay. In outline:
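For 72 h at 37 °C, MPNST cell lines and primary human Schwann cells were exposed in 384-well plates to five 10-fold compound dilutions. CellTox-Green, added before seeding at a final 1:1000 dilution, gave fluorescence from DNA released by disrupted cells. Signals were scaled to vehicle and positive-control wells, cultures failing plate quality control were left out, and four-parameter logistic fits were applied. Relative IC50 and drug sensitivity score were derived from the fits, with IC50 censored at the top concentration.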

The subject of assay [2] is HS-Sch-2. Put plainly: drug sensitivity score (DSS, CellTiter-Glo viability, 72 h) (DSS (dimensionless)); higher = more sensitive; extreme values may be limits of the assay. Summed up:
(§1)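 After seeding 750–1000 cells per well of MPNST cell lines or primary human Schwann cells into 384-well plates preprinted with each compound at five concentrations in 10-fold steps, plates were kept 72 h at 37 °C, 5% CO2. Viability was read as CellTiter-Glo ATP luminescence relative to vehicle and positive-control wells, with duplicates averaged where present. The data were fitted with four-parameter logistic models. Drug sensitivity score and relative IC50, censored at the top concentration, derive from the fits, and percent inhibition refers to the top concentration.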
(In general: ATP-based viability assays read luminescence as a measure of living cells.)

The subject of assay [3] is YST-1. The description is as above. In outline: as §1
Assay [4] relates to HS-PSS. The assay is described as above. Summed up:
as §1

In assay [5] the test system is HS-Sch-2. Put plainly: % inhibition of CellTiter-Glo viability at highest tested concentration (72 h), relative to DMSO and benzethonium chloride controls; higher = more inhibition. In outline:
as §1

The subject of assay [6] is YST-1. Described as above. In outline:
as §1

Assay [7] concerns HS-PSS. The description is as above. In outline: as §1

A word on the % inhibition: it is the change of the read-out against control, counted positive when it falls.

SMILES strings stand for the structures.

Regarding `CCCOc1ccn2c(C(C)=O)cc(-c3ccccc3S(C)(=O)=O)c2c1` [GSK2801] (max concentration tested 10000 nM), the drug sensitivity score in the assay on HS-PSS [1], in the assay with HS-Sch-2 [2], in the assay on YST-1 [3] and in the assay with HS-PSS [4] was 0 throughout. The “% inhibition” value in the assay with HS-Sch-2 [5] was -6.2%; in the assay on YST-1 [6], 0.58%; in the assay on HS-PSS [7], 0.71%.
Consider `C[C@H]1C=C2C(=O)O[C@H]3CC[C@@H](C1)[C@@]23O` [Galiellalactone] (max concentration tested 25000 nM), for which the drug sensitivity score is 0 in the assay with HS-PSS [1], 7.88 with HS-Sch-2 [2], 2.78 in the assay on YST-1 [3] and 3.82 in the assay on HS-PSS [4]. Moreover, the results for the “% inhibition” value in the assay on HS-Sch-2 [5], in the assay on YST-1 [6] and in the assay on HS-PSS [7] were 93.5%, 64.8% and 58.6%, respectively.
As for `CN(C)C1CCN(C(=O)c2ccc(NC(=O)Nc3ccc(-c4nc(N5CCOCC5)nc(N5CCOCC5)n4)cc3)cc2)CC1` [Gedatolisib] (max concentration tested 1000 nM), the drug sensitivity score in the assay with HS-PSS [1] was 0; in the assay on HS-Sch-2 [2], 12; with YST-1 [3] it was 19.4; in the assay with HS-PSS [4], 17.4. For the same molecule, the “% inhibition” value with HS-Sch-2 [5] was determined as 80.3%; with YST-1 [6], 93.2%; in the assay on HS-PSS [7], 73.4%.
Take `CCN(CC)Cc1ccc2cc(COC(=O)Nc3ccc(C(=O)NO)cc3)ccc2c1` [Givinostat] (max concentration tested 1000 nM): the drug sensitivity score in the assay with HS-PSS [1] is 1.98; in the assay on HS-Sch-2 [2], 8.81; with YST-1 [3] it was 13.1; in the assay on HS-PSS [4] it was 3.45. Further, the “% inhibition” value in the assay with HS-Sch-2 [5] was found to be 98%; with YST-1 [6], 98.9%; in the assay on HS-PSS [7] it was 69.4%.
Take `CN1CC[C@@H](NC(=O)Nc2ccc(C#N)cc2)C[C@@H]1c1nc2ccccc2[nH]1` [Glasdegib] (max concentration tested 1000 nM): the drug sensitivity score in the assay on HS-PSS [1] came to 0; in the assay with HS-Sch-2 [2], 1.4; in the assay with YST-1 [3], 0; in the assay on HS-PSS [4], 2.26. In addition, the figures for the “% inhibition” value in the assay with HS-Sch-2 [5], in the assay on YST-1 [6] and with HS-PSS [7] were 20.6%, 1.47% and 21.2%, respectively.
Take `CN1CCN(C2CCN(C(=O)Nc3cc(Oc4ccc(NC(=O)C5(C(=O)Nc6ccc(F)cc6)CC5)c(F)c4)ccn3)CC2)CC1` [Golvatinib] (max concentration tested 2500 nM): the drug sensitivity score in the assay with HS-PSS [1] is 0; in the assay with HS-Sch-2 [2] it was 0.68; in the assay with YST-1 [3] it was 1.35; with HS-PSS [4], 0.68. The “% inhibition” value in the assay on HS-Sch-2 [5] was 19.2%; in the assay on YST-1 [6], 17.2%; in the assay on HS-PSS [7] it was 23.6%.
On to `O=S(=O)(c1cccc2c(O)nccc12)N1CCCNCC1` [Hydroxyfasudil] (max concentration tested 37500 nM), for which the drug sensitivity score in the assay on HS-PSS [1] was 0; in the assay on HS-Sch-2 [2] it was 1.47; with YST-1 [3], 0.03; in the assay on HS-PSS [4], 1.21. For the same molecule, the “% inhibition” value worked out at 21.6% in the assay on HS-Sch-2 [5], 12.7% with YST-1 [6] and 19.5% with HS-PSS [7].
As for `O=C(O)c1ccc(O)c2ncccc12` [IOX-1] (max concentration tested 100000 nM), the drug sensitivity score was found to be 0 in the assay with HS-PSS [1], 0.26 in the assay on HS-Sch-2 [2], 2.03 in the assay on YST-1 [3] and 0 in the assay with HS-PSS [4]. Further, the figures for the “% inhibition” value in the assay on HS-Sch-2 [5], in the assay with YST-1 [6] and with HS-PSS [7] were 18.7%, 46% and 1.4%, respectively.
On to `O=C(Nc1nc2ccccc2n1CCN1CCOCC1)c1cccc([N+](=O)[O-])c1` [IRAK1/4 inhibitor] (max concentration tested 25000 nM), for which the drug sensitivity score in the assay with HS-PSS [1], in the assay with HS-Sch-2 [2], with YST-1 [3] and in the assay on HS-PSS [4] was 0 in each case. Also, the “% inhibition” value in the assay with HS-Sch-2 [5] is -2.86%; with YST-1 [6] it was 6.78%; in the assay with HS-PSS [7] it was 3.76%.
`C#Cc1cccc(Nc2ncnc3cc4c(cc23)OCCOCCOCCO4)c1` [Icotinib] (max concentration tested 10000 nM): the drug sensitivity score in the assay with HS-PSS [1] was determined as 0; with HS-Sch-2 [2], 1.37; in the assay on YST-1 [3], 1.96; in the assay with HS-PSS [4], 0.72. For the same molecule, the “% inhibition” value in the assay with HS-Sch-2 [5] is 19.6%; in the assay on YST-1 [6], 23.8%; in the assay on HS-PSS [7], 16.4%.
Take `COc1cc(C(=O)O)ccc1NC(=O)[C@@H]1N[C@@H](CC(C)(C)C)[C@](C#N)(c2ccc(Cl)cc2F)[C@H]1c1cccc(Cl)c1F` [Idasanutlin] (max concentration tested 10000 nM): the drug sensitivity score came out at 0 in the assay on HS-PSS [1], 0 in the assay on HS-Sch-2 [2], 25.1 with YST-1 [3] and 5.43 in the assay with HS-PSS [4]. The “% inhibition” value is -12.1% with HS-Sch-2 [5], 98.6% in the assay on YST-1 [6] and 26.1% in the assay with HS-PSS [7].
`CC(C)NC[C@@H](C(=O)N1CCN(c2ncnc3c2[C@H](C)C[C@H]3O)CC1)c1ccc(Cl)cc1` [Ipatasertib] (max concentration tested 10000 nM): the drug sensitivity score in the assay with HS-PSS [1] amounted to 0.28; with HS-Sch-2 [2], 4.24; in the assay with YST-1 [3], 6.9; in the assay with HS-PSS [4], 3.83. In addition, the “% inhibition” value in the assay with HS-Sch-2 [5] came to 39.1%; in the assay with YST-1 [6] it was 55.2%; in the assay on HS-PSS [7], 37.1%.
As for `CCC(C)n1ncn(-c2ccc(N3CCN(c4ccc(OCC5COC(Cn6cncn6)(c6ccc(Cl)cc6Cl)O5)cc4)CC3)cc2)c1=O` (stereo unspecified) [Itraconazole] (max concentration tested 5000 nM), the drug sensitivity score worked out at 0 in the assay on HS-PSS [1], 0.33 with HS-Sch-2 [2], 1.58 in the assay with YST-1 [3] and 4.25 in the assay on HS-PSS [4]. The “% inhibition” value in the assay on HS-Sch-2 [5] is 11.3%; in the assay on YST-1 [6], 33.2%; in the assay on HS-PSS [7], 50.9%.
As to `Cc1sc2c(c1C)C(c1ccc(Cl)cc1)=N[C@@H](CC(=O)OC(C)(C)C)c1nnc(C)n1-2` [JQ1] (max concentration tested 10000 nM), the drug sensitivity score in the assay on HS-PSS [1] was 0; in the assay on HS-Sch-2 [2], 13.1; in the assay on YST-1 [3] it was 13.1; in the assay on HS-PSS [4], 10. Besides, the “% inhibition” value in the assay on HS-Sch-2 [5] came to 76.3%; with YST-1 [6] it was 72.6%; with HS-PSS [7] it was 59.1%.
As to `CCCNC(=O)Nc1ccc(Oc2ncnc3cc(OC)c(OC)cc23)cc1Cl` [KRN-633] (max concentration tested 2500 nM), the drug sensitivity score in the assay with HS-PSS [1], in the assay on HS-Sch-2 [2], with YST-1 [3] and with HS-PSS [4] was 0 throughout. Besides, the “% inhibition” value was -7.09% with HS-Sch-2 [5], 7.23% in the assay with YST-1 [6] and 10.5% in the assay with HS-PSS [7].
Turning to `O=C(c1ccc(/C=C/c2n[nH]c3ccccc23)cc1)N1CCNCC1` [KW-2449] (max concentration tested 2500 nM), the drug sensitivity score in the assay on HS-PSS [1] came out at 0; in the assay with HS-Sch-2 [2] it was 0; in the assay on YST-1 [3], 2.08; in the assay with HS-PSS [4], 0. In addition, the “% inhibition” value is 0.48% in the assay with HS-Sch-2 [5], 30.9% in the assay on YST-1 [6] and 10.1% in the assay with HS-PSS [7].
For the molecule `CN[C@@H](C)C(=O)N[C@H](C(=O)N1CCC[C@H]1c1nc(C(=O)c2ccc(F)cc2)cs1)C1CCCCC1` [LCL161] (max concentration tested 25000 nM), the drug sensitivity score with HS-PSS [1] was 0.11; with HS-Sch-2 [2], 2.38; in the assay with YST-1 [3] it was 3.14; in the assay with HS-PSS [4], 2.18. In addition, the “% inhibition” value is 44.2% in the assay with HS-Sch-2 [5], 38.7% in the assay with YST-1 [6] and 27.8% with HS-PSS [7].
For the molecule `Nc1cccc2c1CN(C1CCC(=O)NC1=O)C2=O` (stereo unspecified) [Lenalidomide] (max concentration tested 100000 nM), the drug sensitivity score with HS-PSS [1] was found to be 0; with HS-Sch-2 [2] it was 0.18; with YST-1 [3] it was 1.7; with HS-PSS [4] it was 0. Besides, the “% inhibition” value turned out to be 15.6% in the assay with HS-Sch-2 [5], 20.7% in the assay with YST-1 [6] and 6.75% in the assay on HS-PSS [7].
